Measured values published in US10844013B2, “Phenyl amino piperidine mTORC inhibitors and uses thereof” (Navitor Pharmaceuticals, Inc., priority 2016, dated 2020).

What was measured:
[1] = test system: pS6K1 (p-p70 S6 Kinase (Thr389)) in MCF-7 cells; experiment: AlphaLISA Ultra pS6K1 assay; type: cell-based; details: Homo sapiens, MCF7, 2 h, 2 hours compound incubation
Outline: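 MCF-7 cells seeded 20–24 h, medium refreshed 2 h, then treated 2 h with compound (0.5% DMSO final). Lysates probed for Thr389-phosphorylated p70 S6K by AlphaLISA Ultra, 2 h acceptor then 2 h donor bead incubation, read on a multimode reader.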

[2] = test system: pAKT (p-Akt 1/2/3 (Ser473)) in MCF-7 cells; experiment: AlphaLISA Ultra pAKT assay; type: cell-based; details: Homo sapiens, MCF7, 2 hours compound incubation
Outline: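 AlphaLISA read-out (2 h acceptor-bead, then 2 h donor-bead incubation) on thawed lysates of MCF-7 cells exposed to compounds for 2 h in 0.5% DMSO. Cells had been plated 20-24 h and given fresh medium 2 h before dosing.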

IC50 [1] [µM] | IC50 [2] [µM] | SMILES
3 to 5 | > 10 | Cc1cc(C)c(C(=O)N2CCN(CC(F)(F)F)[C@@H](CO)C2)cc1NC1CCN(c2ccccc2C#N)CC1 [I-96, (R)-2-(4-(5-(3-(Hydroxymethyl)-4-(2,2,2-trifluoroethyl)piperazine-1-carbonyl)-2,4-dimethylphenylamino)piperidin-1-yl)benzonitrile]
> 10 | > 10 | Cc1cc(C)c(C(=O)NC2CCN(c3ccccc3C#N)CC2)cc1NC1CCN(c2ccccc2C#N)CC1 [I-97, N-(1-(2-Cyanophenyl)piperidin-4-yl)-5-(1-(2-cyanophenyl)piperidin-4-ylamino)-2,4-dimethylbenzamide]
5 to 10 | > 10 | Cc1cc(C)c(C(=O)N2CCN(CC(F)(F)F)[C@H](CO)C2)cc1NC1CCN(c2ccccc2C#N)CC1 [I-98, (S)-2-(4-(5-(3-(Hydroxymethyl)-4-(2,2,2-trifluoroethyl)piperazine-1-carbonyl)-2,4-dimethylphenylamino)piperidin-1-yl)benzonitrile]
0.01 to 1 | > 10 | Cc1cc(C)c(C(=O)N2CCN(c3ccccc3[S@](C)(=N)=O)CC2)nc1NC1CCN(c2ccccc2C#N)CC1 [I-110, (R)-2-(4-(3,5-Dimethyl-6-(4-(2-(S-methylsulfonimidoyl)phenyl)piperazine-1-carbonyl)pyridin-2-ylamino)piperidin-1-yl)benzonitrile]
1 to 3 | > 10 | Cc1cc(C)c(C(=O)N2CCN(c3ccccc3C)[C@@H](CO)C2)cc1NC1CCN(c2ccccc2C#N)CC1 [I-112, (R)-2-(4-(5-(3-(Hydroxymethyl)-4-o-tolylpiperazine-1-carbonyl)-2,4-dimethylphenylamino)piperidin-1-yl)benzonitrile]
> 10 | > 10 | Cc1cc(C)c(C(=O)N2CCN(C(C)C)[C@@H](CO)C2)cc1NC1CCN(c2ccccc2C#N)CC1 [I-114, (R)-2-(4-(5-(3-(Hydroxymethyl)-4-isopropylpiperazine-1-carbonyl)-2,4-dimethylphenylamino)piperidin-1-yl)benzonitrile]
1 to 3 | > 10 | Cc1cc(C)c(C(=O)N2CCN(c3ccc(F)cn3)[C@@H](CO)C2)cc1NC1CCN(c2ccccc2C#N)CC1 [I-116, (R)-2-(4-(5-(4-(5-Fluoropyridin-2-yl)-3-(hydroxymethyl)piperazine-1-carbonyl)-2,4-dimethylphenylamino)piperidin-1-yl)benzonitrile]
0.01 to 1 | > 10 | Cc1cc(C)c(C(=O)N2CCN(c3ccc(F)cn3)[C@H](CO)C2)cc1NC1CCN(c2ccccc2C#N)CC1 [I-117, (S)-2-(4-(5-(4-(5-fluoropyridin-2-yl)-3-(hydroxymethyl)piperazine-1-carbonyl)-2,4-dimethylphenylamino)piperidin-1-yl)benzonitrile]
0.01 to 1 | > 10 | Cc1ccc(C(=O)N2CCN(c3ncccc3S(N)(=O)=O)CC2)c(C)c1NC1CCN(c2ccccc2C#N)CC1 [I-120, 2-(4-(3-(1-(2-cyanophenyl)piperidin-4-ylamino)-2,4-dimethylbenzoyl)piperazin-1-yl)pyridine-3-sulfonamide]
0.01 to 1 | > 10 | Cc1ccc(C(=O)N2CCN(c3ccccc3S(N)(=O)=O)CC2)c(C)c1NC1CCN(c2ccccc2C#N)CC1 [I-124, 2-[4-[3-[[1-(2-cyanophenyl)-4-piperidyl]amino]-2,4-dimethyl-benzoyl]piperazin-1-yl]benzenesulfonamide]
3 to 5 | > 10 | COc1cc(C)c(C(=O)N2CCN(c3ccccc3S(N)(=O)=O)CC2)cc1NC1CCN(c2ccccc2C#N)CC1 [I-127, 2-(4-(5-(1-(2-Cyanophenyl)piperidin-4-ylamino)-4-methoxy-2-methylbenzoyl)piperazin-1-yl)benzenesulfonamide]
1 to 3 | > 10 | Cc1cccc(N2CCC(Nc3cc(C(=O)N4CCN(c5ccccc5S(N)(=O)=O)CC4)c(C)cc3C)CC2)c1 [I-129, 2-(4-(2,4-Dimethyl-5-(1-m-tolylpiperidin-4-ylamino)benzoyl)piperazin-1-yl)benzenesulfonamide]

Second part, the molecule before the results:

SMILES | IC50 [1] [µM] | IC50 [2] [µM]
Cc1cc(C)c(C(=O)N2CCN(c3ncccc3[S@](C)(=N)=O)CC2)cc1NC1CCN(c2ccccc2C#N)CC1 [I-94, (R)-2-(4-(2,4-Dimethyl-5-(4-(3-(S-methylsulfonimidoyl)pyridin-2-yl)piperazine-1-carbonyl)phenylamino)piperidin-1-yl)benzonitrile] | 1 to 3 | > 10
Cc1cc(C)c(C(=O)N2CCN(C(C)C)[C@H](CO)C2)cc1NC1CCN(c2ccccc2C#N)CC1 [I-95, (S)-2-(4-(5-(3-(Hydroxymethyl)-4-isopropylpiperazine-1-carbonyl)-2,4-dimethylphenylamino)piperidin-1-yl)benzonitrile] | > 10 | > 10
Cc1cc(C)c(C(=O)N2CCN(c3cc(F)ccn3)[C@@H](CO)C2)cc1NC1CCN(c2ccccc2C#N)CC1 [I-99, (R)-2-(4-(5-(4-(4-Fluoropyridin-2-yl)-3-(hydroxymethyl)piperazine-1-carbonyl)-2,4-dimethylphenylamino)piperidin-1-yl)benzonitrile] | 1 to 3 | > 10
Cc1cccc(N2CCN(C(=O)c3cc(NC4CCN(c5ccccc5C#N)CC4)c(C)cc3C)C[C@@H]2CO)n1 [I-101, (R)-2-(4-(5-(3-(Hydroxymethyl)-4-(6-methylpyridin-2-yl)piperazine-1-carbonyl)-2,4-dimethylphenylamino)piperidin-1-yl)benzonitrile] | 1 to 3 | > 10
Cc1cc(C)c(C(=O)N2CCN(c3ccc(F)cc3S(N)(=O)=O)CC2)nc1NC1CCN(c2ccccc2C#N)CC1 [I-103, 2-(4-(6-(1-(2-cyanophenyl)piperidin-4-ylamino)-3,5-dimethylpicolinoyl)piperazin-1-yl)-5-fluorobenzenesulfonamide] | 1 to 3 | > 10
Cc1cc(C)c(C(=O)N2CCN(c3cc(F)c(F)cc3S(N)(=O)=O)CC2)cc1NC1CCN(c2ccccc2C#N)CC1 [I-104, 2-(4-(5-(1-(2-Cyanophenyl)piperidin-4-ylamino)-2,4-dimethylbenzoyl)piperazin-1-yl)-4,5-difluorobenzenesulfonamide] | 0.01 to 1 | > 10
COc1cc(C)c(NC2CCN(c3ccccc3C#N)CC2)cc1C(=O)N1CCN(c2ccccc2S(N)(=O)=O)CC1 [I-105, 2-(4-(5-(1-(2-Cyanophenyl)piperidin-4-ylamino)-2-methoxy-4-methylbenzoyl)piperazin-1-yl)benzenesulfonamide] | 1 to 3 | > 10
Cc1cc(C)c(C(=O)N2CCN(c3ccccc3S(N)(=O)=O)CC2)cc1NC1CCN(c2ccccc2C)CC1 [I-108, 2-(4-(2,4-Dimethyl-5-(1-o-tolylpiperidin-4-ylamino)benzoyl)piperazin-1-yl)benzenesulfonamide] | 1 to 3 | > 10
N#Cc1ccccc1N1CCC(Nc2c(F)ccc(C(=O)N3CCN(c4ccccc4S(N)(=O)=O)CC3)c2F)CC1 [I-109, 2-(4-(3-(1-(2-cyanophenyl)piperidin-4-ylamino)-2,4-difluorobenzoyl)piperazin-1-yl)benzenesulfonamide] | 3 to 5 | > 10
Cc1cc(F)c(C(=O)N2CCN(c3ccccc3S(N)(=O)=O)CC2)cc1NC1CCN(c2ccccc2C#N)CC1 [I-113, 2-(4-(5-(1-(2-Cyanophenyl)piperidin-4-ylamino)-2-fluoro-4-methylbenzoyl)piperazin-1-yl)benzenesulfonamide] | 3 to 5 | > 10
Cc1cc(C)c(C(=O)N2CCN(c3ncccc3F)[C@@H](CO)C2)cc1NC1CCN(c2ccccc2C#N)CC1 [I-115, (R)-2-(4-(5-(4-(3-Fluoropyridin-2-yl)-3-(hydroxymethyl)piperazine-1-carbonyl)-2,4-dimethylphenylamino)piperidin-1-yl)benzonitrile] | 1 to 3 | > 10
Cc1cc(C)c(C(=O)N2CCN(c3ccccn3)C(C)(C)C2)cc1NC1CCN(c2ccccc2C#N)CC1 [I-118] | 1 to 3 | > 10
Cc1cc(C)c(C(=O)N2CCN(c3ccccc3)C(C)(C)C2)cc1NC1CCN(c2ccccc2C#N)CC1 [I-119, 2-(4-(5-(3,3-Dimethyl-4-phenylpiperazine-1-carbonyl)-2,4-dimethylphenylamino)piperidin-1-yl)benzonitrile] | > 10 | > 10
Cc1cc(C)c(C(=O)N2CCN(c3ncccc3S(N)(=O)=O)[C@H](C)C2)cc1NC1CCN(c2ccccc2C#N)CC1 [I-122, (R)-2-(4-(5-(1-(2-Cyanophenyl)piperidin-4-ylamino)-2,4-dimethylbenzoyl)-2-methylpiperazin-1-yl)pyridine-3-sulfonamide] | 0.01 to 1 | > 10
CNC(=O)c1cccnc1N1CCN(C(=O)c2cc(NC3CCN(c4ccccc4C#N)CC3)c(C)cc2C)C[C@H]1C [I-123, (R)-2-(4-(5-(1-(2-Cyanophenyl)piperidin-4-ylamino)-2,4-dimethylbenzoyl)-2-methylpiperazin-1-yl)-N-methylnicotinamide] | 1 to 3 | > 10
N#Cc1ccccc1N1CCC(Nc2cc(C(=O)N3CCN(c4ccccc4S(N)(=O)=O)CC3)c(Cl)cc2Cl)CC1 [I-125, 2-(4-(2,4-dichloro-5-(1-(2-cyanophenyl)piperidin-4-ylamino)benzoyl)piperazin-1-yl)benzenesulfonamide] | > 10 | > 10
Cc1cc(C)c(C(=O)N2CCN(c3ccccc3S(N)(=O)=O)CC2)cc1NC1CCN(c2ccccc2C#N)C1 (stereo not shown) [I-131, 2-(4-(5-(1-(2-cyanophenyl)pyrrolidin-3-ylamino)-2,4-dimethylbenzoyl)piperazin-1-yl)benzenesulfonamide] | > 10 | > 10
